Values quoted from earlier work as cited in US20030027804A1, “Therapeutic combinations for the treatment of hormone deficiencies” (priority 2001, published 2003).

Tests used:
[1] = oral
[2] = target: sex hormone binding globulin (SHBG), albumin (Homo sapiens, UniProt P02768); details: in men
[3] = target: T1, sex hormone binding globulin (SHBG), albumin (Homo sapiens, UniProt P04278); details: in men
T1 sequence (P04278 30-402): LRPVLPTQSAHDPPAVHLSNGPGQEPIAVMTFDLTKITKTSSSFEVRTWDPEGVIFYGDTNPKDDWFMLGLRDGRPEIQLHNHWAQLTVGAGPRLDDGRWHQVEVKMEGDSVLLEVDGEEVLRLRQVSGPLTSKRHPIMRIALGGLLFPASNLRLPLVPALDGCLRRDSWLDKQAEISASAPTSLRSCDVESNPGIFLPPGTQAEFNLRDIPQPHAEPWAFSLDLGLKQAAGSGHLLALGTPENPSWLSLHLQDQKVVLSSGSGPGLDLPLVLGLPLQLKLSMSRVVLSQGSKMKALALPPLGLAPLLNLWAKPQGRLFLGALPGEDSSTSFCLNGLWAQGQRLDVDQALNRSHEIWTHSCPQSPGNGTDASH

[4] = tested on: sex hormone binding globulin (SHBG), albumin; details: circulating in the blood
[5] = oral, sublingual or buccal 17-alkylated androgens
[6] = in vivo

Sequence of sex hormone binding globulin (SHBG), albumin (Homo sapiens, UniProt P02768) (P02768 25-609): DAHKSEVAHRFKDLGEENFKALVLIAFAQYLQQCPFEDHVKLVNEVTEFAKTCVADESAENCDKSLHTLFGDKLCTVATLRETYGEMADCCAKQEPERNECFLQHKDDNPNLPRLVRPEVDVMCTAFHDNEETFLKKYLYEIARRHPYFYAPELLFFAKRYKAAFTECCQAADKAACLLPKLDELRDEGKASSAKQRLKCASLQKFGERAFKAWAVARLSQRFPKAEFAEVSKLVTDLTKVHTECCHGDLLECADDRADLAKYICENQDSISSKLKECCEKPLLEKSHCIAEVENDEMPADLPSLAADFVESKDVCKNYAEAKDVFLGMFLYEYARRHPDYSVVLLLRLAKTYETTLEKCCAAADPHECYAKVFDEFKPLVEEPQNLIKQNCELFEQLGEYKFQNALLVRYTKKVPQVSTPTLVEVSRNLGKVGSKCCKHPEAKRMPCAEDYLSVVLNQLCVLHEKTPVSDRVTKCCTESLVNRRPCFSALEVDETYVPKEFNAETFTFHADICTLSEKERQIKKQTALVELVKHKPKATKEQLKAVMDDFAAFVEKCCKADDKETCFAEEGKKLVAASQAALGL

C[C@]12CC[C@H]3[C@@H](CCC4=CC(=O)CC[C@@]43C)[C@@H]1CC[C@@H]2O [testosterone]
orally administered testosterone cleared by the liver in the first pass [1]: about 44% | share bound weakly to albumin [2]: 60% | share of binding to high-affinity SHBG [3]: approximately 40% | testosterone in blood bound to protein [4]: 98%

C[C@]1(O)CC[C@H]2[C@@H]3CCC4=CC(=O)CC[C@]4(C)[C@@]3(F)[C@@H](O)C[C@@]21C [fluoxymesterone]
liver toxicity [5]: associated with liver toxicity

C[C@]12CCC(=O)C=C1CC[C@@H]1[C@@H]2CC[C@@]2(C)[C@H]1CC[C@]2(C)O [methyl testosterone, 17 alpha-methyl-testosterone]
liver toxicity [5]: associated with liver toxicity

C[C@]12CC[C@@H]3c4ccc(O)cc4CC[C@H]3[C@@H]1CC[C@@H]2O [estradiol, 1,3,5(10)-Estratriene-3,17 beta-diol]
serum levels of estradiol required for clinical efficacy [6]: 40 to 60 pg/mL
